Values of other authors in patent US10265268B2, “External composition for screen foamers” (POLA PHARMA INC., priority 2014, dated 2019).

Settings: surfactants from NIKKOL / suitable examples

| Compound | HLB |
| --- | --- |
| CCCCCCCCCCCCCCCCCC(=O)OCC(O)CO (centres unmarked) [Glyceryl monostearate] | 4.0 |
| Polyethylene glycol monostearate (40 E.O.) | 17.5 |
| Polyoxyethylene (20) polyoxypropylene (8) cetyl ether | 12.5 |

Now from value to compound:

| HLB | Compound |
| --- | --- |
| 13.5 | Polyoxyethylene (10) cetyl ether |
| 16.5 | Polyoxyethylene (20) behenyl ether |
